Laboratory results: the supplement of paper PMC10307832

How the values were obtained:
Experiment in all cases: relative viability (nuclei count vs DMSO), 5 days (fraction); higher = more cells survive
Cediranib + Phenformin = compound: COc1cc2c(Oc3ccc4[nH]c(C)cc4c3F)ncnc2cc1OCCCN1CCCC1 [Cediranib] + N=C(N)NC(=N)NCCc1ccccc1 [Phenformin] (partner 250 µM)
Method in brief: (§1)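 Lung cancer cell lines, seeded in 1536-well plates, were treated the following day by pin tool with a single drug or with five library-drug doses (not always all listed) in √10 steps on top of a fixed anchor-drug dose. Cells were fixed and nuclei stained in one step after 5 days, and nuclei were counted. Relative viability is the nuclei count for treated wells divided by that for vehicle wells, reported as medians of duplicate plates.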

Cediranib + Trametinib = compound: COc1cc2c(Oc3ccc4[nH]c(C)cc4c3F)ncnc2cc1OCCCN1CCCC1 [Cediranib] + CC(=O)Nc1cccc(-n2c(=O)n(C3CC3)c(=O)c3c(Nc4ccc(I)cc4F)n(C)c(=O)c(C)c32)c1 [Trametinib] (partner 0.02 µM)
Method in brief: as §1

Cediranib + Palbociclib = compound: COc1cc2c(Oc3ccc4[nH]c(C)cc4c3F)ncnc2cc1OCCCN1CCCC1 [Cediranib] + CC(=O)c1c(C)c2cnc(Nc3ccc(N4CCNCC4)cn3)nc2n(C2CCCC2)c1=O [Palbociclib] (partner 0.5 µM)
Method in brief: as §1

Cediranib + Pemetrexed = compound: COc1cc2c(Oc3ccc4[nH]c(C)cc4c3F)ncnc2cc1OCCCN1CCCC1 [Cediranib] + Nc1nc2[nH]cc(CCc3ccc(C(=O)N[C@@H](CCC(=O)O)C(=O)O)cc3)c2c(=O)[nH]1 [Pemetrexed] (partner 0.2 µM)
Method in brief: as §1

Cell Line	relative viability (Cediranib + Phenformin; first compound 0.04 µM)	relative viability (Cediranib + Phenformin; first compound 0.4 µM)	relative viability (Cediranib + Phenformin; first compound 1.265 µM)	relative viability (Cediranib + Phenformin; first compound 4 µM)	relative viability (Cediranib + Trametinib; first compound 0.04 µM)	relative viability (Cediranib + Trametinib; first compound 0.1265 µM)	relative viability (Cediranib + Trametinib; first compound 0.4 µM)	relative viability (Cediranib + Trametinib; first compound 1.265 µM)	relative viability (Cediranib + Trametinib; first compound 4 µM)	relative viability (Cediranib + Palbociclib; first compound 0.04 µM)	relative viability (Cediranib + Palbociclib; first compound 0.1265 µM)	relative viability (Cediranib + Palbociclib; first compound 0.4 µM)	relative viability (Cediranib + Palbociclib; first compound 1.265 µM)	relative viability (Cediranib + Palbociclib; first compound 4 µM)	relative viability (Cediranib + Pemetrexed; first compound 0.04 µM)	relative viability (Cediranib + Pemetrexed; first compound 0.1265 µM)	relative viability (Cediranib + Pemetrexed; first compound 0.4 µM)	relative viability (Cediranib + Pemetrexed; first compound 1.265 µM)	relative viability (Cediranib + Pemetrexed; first compound 4 µM)	relative viability (Cediranib + Phenformin; first compound 0.1265 µM)
NCI-H1623	0.587	0.553	0.595	0.567	–	–	–	–	–	–	–	–	–	–	–	–	–	–	–	–
HCC-827	0.412	0.389	0.385	0.356	0.6	0.791	0.529	0.539	0.497	0.559	0.54	0.433	0.629	0.424	0.31	0.235	0.231	0.259	0.259	–
NCI-H322M	0.879	0.728	0.849	0.8	0.475	0.489	0.526	0.528	0.568	0.46	0.589	0.464	0.492	0.524	0.64	0.684	0.592	0.648	0.572	0.862
ChaGo-K-1	0.486	0.452	0.564	0.576	0.875	0.821	0.878	0.868	0.909	0.979	0.922	0.961	0.996	0.986	0.262	0.261	0.297	0.252	0.263	0.361
BEN	0.266	0.258	0.236	0.253	1.12	0.936	1.02	1.02	0.986	0.437	0.412	0.489	0.451	0.47	0.921	0.549	0.693	0.501	0.786	–
NCI-H2347	0.34	0.383	0.386	0.41	0.316	0.282	0.233	0.286	0.318	0.497	0.417	0.4	0.4	0.417	0.397	0.353	0.425	0.454	0.44	0.236
LOU-NH91	0.688	0.696	0.625	0.673	0.841	0.808	0.796	0.751	0.786	0.55	0.561	0.51	0.513	0.533	0.447	0.347	0.357	0.337	0.36	0.986
NCI-H2228	0.278	0.278	0.285	0.319	0.46	0.376	0.398	0.565	0.505	0.648	1.02	0.752	0.615	0.787	0.351	0.346	0.359	0.325	0.325	0.272
NCI-H2342	0.563	0.635	0.466	0.58	0.841	0.897	0.849	0.877	0.812	0.562	0.52	0.451	0.534	0.479	0.764	0.808	0.805	0.681	0.797	0.825
HCC-366	0.536	0.614	0.738	0.663	0.384	0.404	0.301	0.327	0.398	0.451	0.404	0.366	0.411	0.262	0.491	0.161	0.149	0.18	0.173	0.594
NCI-H2405	0.358	0.378	0.38	0.368	0.647	0.941	0.562	0.636	0.614	0.532	0.574	0.516	0.546	0.514	1.02	1.01	0.997	1.1	1.16	0.422
201T	0.454	0.422	0.483	0.41	0.705	0.792	0.707	0.719	0.724	0.368	0.429	0.352	0.372	0.341	0.344	0.314	0.327	0.359	0.355	0.587
CAL-12T	0.618	0.597	0.627	0.648	0.443	0.362	0.319	0.248	0.341	0.535	0.408	0.411	0.466	0.666	1.03	1.29	1.14	1.13	1.03	0.641
HCC-44	0.195	0.241	0.224	0.201	1.2	0.907	1.1	1.05	1.07	0.983	0.917	0.974	0.947	1.01	0.695	0.589	0.637	0.656	0.682	–
NCI-H358	0.336	0.299	0.222	0.358	0.148	0.156	0.123	0.106	0.131	0.142	0.177	0.129	0.13	0.14	0.176	0.198	0.168	0.17	0.187	0.41
SW 900	0.658	0.698	0.496	0.645	0.76	1.08	0.636	0.83	0.885	0.569	0.677	0.552	0.575	0.594	0.52	0.509	0.463	0.46	0.537	0.604
NCI-H2087	0.382	0.402	0.452	0.546	0.221	0.29	0.179	0.183	0.288	0.243	0.24	0.249	0.182	0.224	0.734	0.678	0.633	0.587	0.63	0.45
COR-L 105	0.4	0.497	0.519	0.523	0.438	0.478	0.415	0.384	0.43	0.413	0.405	0.426	0.394	0.414	1.11	1.08	1.06	1.08	1.15	0.58
LCLC-97TM1	0.501	0.421	0.49	0.449	0.196	–	0.207	0.187	0.214	0.277	–	0.194	0.211	0.277	0.205	–	0.154	0.218	0.177	0.288
NCI-H520	0.704	0.503	0.363	0.464	0.783	0.435	0.54	0.483	0.521	0.262	0.22	0.175	0.162	0.179	0.668	0.789	0.623	0.602	0.563	0.543
NCI-H1993	0.423	0.484	0.523	0.393	–	0.48	0.56	0.504	0.641	–	0.634	0.64	0.656	0.637	–	0.581	0.627	0.49	0.585	0.5
NCI-H1437	0.317	0.332	0.363	0.369	0.521	0.449	0.509	0.625	0.621	0.32	0.305	0.291	0.349	0.335	0.33	0.299	0.289	0.334	0.337	0.285
LC-2-ad	0.595	0.612	0.569	0.554	0.94	0.915	0.901	0.995	0.841	0.527	0.55	0.456	0.494	0.399	0.289	0.3	0.278	0.298	0.275	0.497
HARA	0.331	0.391	0.429	0.454	0.803	0.81	0.62	0.882	0.831	0.249	0.32	0.298	0.301	0.211	0.194	0.248	0.28	0.303	0.299	–
ABC-1	0.226	0.243	–	0.241	–	–	–	–	–	0.766	1.04	0.538	0.853	0.426	–	–	–	–	–	0.294
NCI-H1563	0.63	0.676	0.651	0.665	–	–	–	–	–	–	–	–	–	–	0.885	0.879	0.843	0.675	0.872	0.851
NCI-H727	–	0.483	0.528	0.533	0.374	0.376	0.358	0.374	0.384	0.649	0.736	0.703	0.616	0.644	–	–	–	–	–	–
NCI-H1648	–	–	–	–	0.442	0.499	0.539	0.462	0.495	0.28	0.242	0.287	0.307	0.633	0.563	0.551	0.617	0.634	0.372	–
A549	0.135	0.211	0.153	0.212	–	–	–	–	–	–	–	–	–	–	–	–	–	–	–	0.121
NCI-H596	0.723	0.722	–	0.718	0.767	0.778	0.73	0.771	0.918	–	–	–	–	–	0.472	0.499	0.427	0.476	0.525	0.703
